Reference: article PMC10752957, “GABAA receptors as plausible molecular targets and mediators for taurine and homotaurine actions” (Frontiers in Pharmacology, 2023)
“And” between values parts separate entries of the source, which are not always exact repeats. Equal entries are not always repeated. Where two headings read alike, the source gives them in different places.

How the values were obtained:
[1] = tested on: native GABAARs in cerebellar granule cells; assay: Whole-cell patch clamp of cerebellar granule cells in mouse brain slices, cumulative concentration-response; assay type: cell-based; conditions: for Concentration at which currents reach saturation / Threshold concentration for eliciting currents: cumulative application; for Hill slope of the concentration-response curve: normalized concentration-response curves; for Hill slope of the concentration-response curve / Maximal current response (Imax ± SEM) / EC50: n = 7; for Maximal current response (Imax ± SEM): 1 mM HT, 3 mM taurine, 3 mM GABA; for EC50: read-out: EC50 for evoking GABAAR-mediated current, CGCs held at −70 mV, 10 μM DNQX, 0.3 μM TTX, room temperature, mean ± SEM
[2] = biological target: mouse brain native GABAARs; assay: 5 nM [3H]muscimol displacement from mouse brain (sans cerebellum) membranes; assay type: binding; conditions: n = 9; for IC50: 5 nM [3H]muscimol, mean ± SEM, read-out: IC50 for displacing [3H]muscimol binding
Procedure: Adult mouse brain (sans cerebellum) membrane pellets were prepared essentially as described by [Uusi-Oukari et al. (2014)], suspended in 50 mM Tris-HCl, pH 7.4 (assay buffer) and frozen at −80°C. For binding experiments, the suspension was thawed and washed by centrifugation/resuspension in assay buffer. 5 nM [^3H]muscimol binding was measured in assay buffer at room temperature (RT, ∼22°C) in a total volume of 300 µL. […] After 20 min incubation at room temperature the membranes were collected with a Brandel Cell Harvester (Model M-24, Gaithersburg, MD, United States) onto Whatman GF/B filters (Whatman International Ltd., Maidstone, United Kingdom). The samples were rinsed twice with 4–5 mL of ice-cold assay buffer. Filtration and rinsing steps took a total time of ∼15 s. Air-dried filters were immersed in 3 mL of Optiphase HiSafe 3 scintillation fluid (Wallac, Turku, Finland) and radioactivity determined in a Hidex 600 SL liquid scintillation counter (Hidex, Turku, Finland). [^3H]Muscimol displacement and electrophysiology data were analyzed with GraphPad Prism 7 software (GraphPad, San Diego, CA, United States). Data are presented as mean ± standard error of mean (SEM). Statistical data analysis was performed with a Student’s t-test (two-tailed distribution, unequal variance) in Microsoft Excel.

rat brain GABAARs = tested on: rat brain GABAARs; parameters: method as in Bureau and Olsen, 1991; conditions: ref Bureau and Olsen, 1991, read-out: Average IC50 for displacing [3H]muscimol; cited from earlier work
[3] = tested on: GABAARs in thalamocortical relay neurons; parameters: method as in Jia et al., 2008; conditions: ref Jia et al., 2008; cited from earlier work
[4] = tested on: strychnine-sensitive glycine receptors; parameters: method as in Jia et al., 2008; conditions: ref Jia et al., 2008; cited from earlier work
mice = tested on: mice; parameters: method as in Singh et al., 2023; conditions: taurine 1 g/kg per day, ref Singh et al., 2023; cited from earlier work
[5] = tested on: chick embryonic neuronal cultures; parameters: method as in Louzada et al., 2004; conditions: 1 mM taurine; ref Louzada et al., 2004; cited from earlier work
GABAAR = tested on: GABAAR; parameters: method as in Allan and Harris, 1986; conditions: ref Allan and Harris, 1986; cited from earlier work
ρ1-GABAARs = tested on: ρ1-GABAARs; parameters: method as in Ochoa-de la Paz et al., 2018; conditions: expressed in oocytes, ref Ochoa-de la Paz et al., 2018, cited from earlier work
[6] = parameters: method as in Hey et al., 2018; conditions: ref Hey et al., 2018; cited from earlier work
primary cultured neurons = tested on: primary cultured neurons; parameters: method as in Gervais et al., 2007; conditions: 100 μM HT; ref Gervais et al., 2007; cited from earlier work
rat = tested on: rat; parameters: method as in Olive et al., 2002; conditions: fold lower doses than acetyl-HT, rat models; ref Olive et al., 2002; cited from earlier work

For `COc1ccc(-c2ccc(=N)n(CCCC(=O)O)n2)cc1` [Gabazine], the “Block of currents evoked by 1 mM HT, 3 mM taurine and 3 mM GABA” value ([1]; applied together with saturating agonist) was “completely blocks”.
With `NCCCC(=O)O` [GABA] the “Concentration at which currents reach saturation” value [1] was roughly 1 mM, the “Threshold concentration for eliciting currents” value (“Threshold concentration” below) [1] was 300 nM and the “Hill slope of the concentration-response curve” value [1] was 0.92 ± 0.13.
With `NCCS(=O)(=O)O` [taurine, Taurine] the “Maximal current response (Imax ± SEM)” value [1] was −67 ± 7 pA, the “Concentration at which currents reach saturation” value [1] was “around 3 mM” and the “Threshold concentration” value [1] was “around 10 μM”. The “Hill slope of the concentration-response curve” value [1] was 0.87 ± 0.06, the EC50 [1] was 116000 nM and the IC50 ([2]; room temperature) was 125000 nM. For the same molecule, the “Hill slope of the [3H]muscimol displacement curve” value [2] was −0.86 ± 0.04, the IC50 (rat brain GABAARs) was roughly 50000 nM and the “Concentration that activates GABAARs” value [3] was no less than 10 µM. The “Concentration that also activates strychnine-sensitive glycine receptors” value [4] was greater than 100 µM, the “Increase in life span” value (mice) was 10% and the “Effect on neurotoxicity of 44 μM Aβ42 and glutamate receptor agonists” value [5] was “prevented”.
With `NCCCS(=O)(=O)O` [HT, Homotaurine] the “Maximal current response (Imax ± SEM)” value [1] was −75 ± 7 pA, the “Concentration at which currents reach saturation” value [1] was “around 10 µM” and the “Threshold concentration” value [1] was roughly 100 nM. For the same molecule, the “Hill slope of the concentration-response curve” value [1] was 0.79 ± 0.05, the EC50 [1] was 400 nM and 425 nM and ~400 nM and the “Potency relative to GABA” value ([1]; times more potent than GABA) was “about 10 times”. For the same molecule, the “Sensitivity of native CGC GABAARs relative to recombinant ρ1-GABAARs” value ([1]; times more sensitive to HT) was “about 1000 times”, the IC50 [2] was 158 ± 10 nM and the IC50 ([2]; room temperature, listed as Homotaurine) was 158 ± 10 nM. The IC50 ([2]; room temperature) was 160 nM and 158 nM and ~200 nM, the “Hill slope of the [3H]muscimol displacement curve” value [2] was −0.79 ± 0.04 and the “Concentration that stimulates GABAAR-mediated chloride flux” value (GABAAR) was no less than 100 µM. For the same molecule, the “Type of agonism on recombinant ρ1-GABAARs” value (ρ1-GABAARs) was “partial agonist”, the EC50 (ρ1-GABAARs; read-out: EC50 on recombinant ρ1-GABAARs) was roughly 300000 nM and the “Estimated average total brain 14C-HT” value [6] was 0.55 µM. For the same molecule, the “Effect on neuronal death induced by 5 μM Aβ42” value (primary cultured neurons) was “inhibited” and the “Dose that reduces alcohol intake, relative to acetyl-HT” value (rat) was roughly 10 fold.
